Assay results from paper PMC9570898, “Comparing Variants of the Cell-Penetrating Peptide sC18 to Design Peptide-Drug Conjugates” (Molecules, 2022).
Residues, ends and D or L forms follow the SMILES beside them. No end group written: not given here. *: point of attachment. X1 = COc1cccc2c1C(=O)c1c(O)c3c(c(O)c1C2=O)C[C@@](O)(C(=O)CO)C[C@@H]3O[C@H]1C[C@H](NC(=O)CCN2C(=O)CC(*)C2=O)[C@H](O)[C@H](C)O1

Key:
HeLa cells [1] = assay: Fluorescence microscopy of intracellular distribution in HeLa cells; assay type: cell-based, human; settings: 30 min; for intracellular distribution of PDC: 5 µM conjugate, 37 °C, fluorescence microscopy; for intracellular accumulation / uptake pattern: 10 µM CF-labeled peptide, confocal fluorescence microscopy
Experimental: Cells were seeded into 8-well plates (HeLa cells 35,000 and HFF-1 25,000 cells per well, respectively) and grown to 80–90% confluency. Cells were treated with 10 μM CF- or dox-labeled peptides in a serum-free medium for 30 min at 37 °C. Ten minutes prior to the end of the incubation time, nuclei were stained with Hoechst33342. The peptide solution was removed, and cells were washed five times with PBS and covered with fresh medium including FBS. Microscopic analysis was performed using an inverse confocal TCS SP8 microscope (Leica Microsystems, Wetzlar, Germany), equipped with a 63× oil-immersion objective. Images were recorded with LAS X software (LAS_X_Core_3.7.6_25997, Leica Microsystems, Wetzlar, Germany). For the GUV analysis and the uptake of the peptide-drug conjugates the Keyence fluorescence tabletop microscope BZ-X800E (Keyence, Osaka, Japan), with a 60× oil immersion lens was used. Images were recorded with Keyence software (BZ-800X_Analyzer 1.1.1.8, Keyence, Osaka: Japan) and evaluated with Fiji.
Figure 6 Fluorescence microscope analysis of 5 µM conjugates after 30 min of incubation at 37 °C in HeLa and HFF-1 cells. Red: peptides coupled to red fluorophore Doxorubicin; blue: Hoechst 33342 nuclear stain; BF: brightfield to identify living cells; scale bar is 20 µm.

HeLa cells [2] = assay: Cytotoxicity (resazurin) assay in HeLa cells; settings: 24 h; for EC50: 37 °C, 2.5-70 µM, Dox data not shown
Experimental: For cell viability assay, cells were (15,000 HeLa, 17,000 MCF-7 and 12,000 HFF-1 cells per well) seeded onto a 96-well plate and grown to 80–90% confluency. Cells were incubated with several peptide concentrations in a serum-free growth medium for 24 h under standard growth conditions. For the positive control, cells were treated with 70% EtOH for 7 min. After washing with DPBS, resazurin solution (10% in serum-free media, v/v) was incubated with the cells for 1 h under standard growth conditions. The cell viability was determined relative to untreated cells by measurement of the resorufin product at 595 nm (λex = 550 nm) on a Tecan infinite M200 plate reader (Tecan Group AG, Männedorf, Switzerland).
Figure 2 (A,B): Cytotoxicity profiles of the peptides in HeLa and HEK-293 cells. Cells were cultured and incubated at pH 7.4 for 24 h with different concentrations of peptide solutions. Untreated cells served as negative control; cells treated with 70% ethanol as positive control. Values from the positive control were subtracted from all data, and the untreated cells were set to 100%; assays were performed with n = 3 in triplicate. (C): Flow cytometry analysis of HeLa or HEK-293 cells after incubating 1 and 10 µM peptide solutions for 30 min at 37 °C; assays were conducted in triplicate n = 3. (D): Confocal laser scanning microscopy analysis of 10 µM CF-labeled peptides after 30 min of incubation in HeLa cells. Green: CF-labeled peptides; blue: Hoechst 33342 nuclear stain; scale bar is 10 µm.
Figure 5 (A): Cytotoxicity assay using HFF-1 cells. Different PDC concentrations were incubated with the cells for 24 h at 37 °C and a resazurin assay was conducted. (B): Dose-response curves for peptide drug conjugates were obtained using the resazurin assay. For this, HeLa cells were treated with various conjugate concentrations (2.5–70 µM) for 24 h at 37 °C. (C): Quantification of PDC internalization in HeLa cells; 10 µM PDC solutions were incubated with cells for 30 min at 37 °C and cells were inspected using a flow cytometer; assays were conducted in triplicate n = 3.

HeLa cells [3] = assay: Cellular uptake by flow cytometry in HeLa cells; assay type: cell-based, human; settings: 30 min; for cellular uptake: 1 and 10 µM CF-labeled peptide, 37 °C, serum-free medium
Experimental: (§1) Monolayer cellular uptake was quantified using flow cytometry. Cells were seeded onto a 24-well plate (HeLa: 90,000, HEK293: 100,000 and MCF-7 130,000 cells per well) and grown to 80–90% confluency. Then, cells were incubated with the labeled peptides/conjugates in a serum-free medium at 37 °C for various incubation times, and subsequently washed twice with PBS and detached with indicator-free trypsin resuspended in an indicator-free serum-containing medium. The cell suspension was transferred into a 96-well FACS plate and fluorescence was then measured by a Guava easyCyte flow cytometer (Merck, Darmstadt, Germany).The blue laser was used for all measurements, FSC (1137–1538), SSC (3020–4086), Grn-B (647–875) and Red-B (694–939). Cellular autofluorescence of untreated control cells was subtracted.

HEK-293 spheroids = assay: Flow cytometry of HEK-293 spheroids; assay type: cell-based, human; settings: 10 µM CF-labeled peptides, 30 min or 1 h
Experimental: For the preparation and seeding of spheroids, cells were washed and trypsinized as described above. Cells were transferred into a fresh 15 mL centrifuge tube and centrifuged for 5 min at 300× g and rt. The supernatant was removed carefully and the pellet was resuspended in an appropriate medium supplemented with FBS. Cells were counted and a cell mixture was prepared, which would be sufficient for 100 drops (3 mL). Within this mixture a total amount of 1.5 × 10^6 cells (HEK-293 and HeLa cells) and 20% (v/v) methylcellulose (1.2 mg/mL) were required. The missing volume was filled up with an appropriate medium containing FBS; 30 μL drops were pipetted into the inverted lid of a petri dish (15,000 cells per drop), the bottom was covered with PBS and spheroids were grown in hanging drops for two or three days at 37 °C and 5% CO2, respectively.
For flow cytometry studies with tumor spheroids, the spheroids were prepared and grown as described above (4.7). […] After the spheroids started to fall apart, 850 μL of medium with FBS (indicator free) was added and the spheroids were resuspended to generate a homogenous cell suspension; 200 μL of each sample were transferred into a fresh round-bottom 96-well plate and analyzed on a Guava® easyCyte flow cytometer (Merck, Darmstadt, Germany). […]

MCF-7 cells = assay: Cell viability (resazurin) assay in MCF-7 cells at pH 7.4 or 6.8; assay type: cell-based, human; settings: MCF-7 cells cultivated at pH 7.4 or 6.8, 24 h, various concentrations, triplicate n = 3
Experimental: For pH-dependent studies, the cells were cultivated and incubated at pH 6.8 or 7.4, respectively.
Figure 1 (A,B): Cell-viability assays using MCF-7 cells. Cells were cultivated at pH 7.4 or pH 6.8, respectively, for 24 h using different concentrations of peptide solutions. […] (C): Cellular uptake of histidine peptides in MCF-7 cells.

HEK293 cells = assay: Cellular uptake by flow cytometry in HEK293 cells; assay type: cell-based, human; settings: 1 and 10 µM CF-labeled peptide, 30 min, 37 °C, serum-free medium
Experimental: as §1

HFF-1 cells = assay: Cytotoxicity (resazurin) assay in HFF-1 cells; assay type: cell-based, human; settings: 24 h treatment, different concentrations, lowest viability reached
[4] = triplicate n = 3, listed as sC18^ΔE

CC[C@H](C)[C@H](NC(=O)[C@H](CCCCN)NC(=O)[C@H](CC(N)=O)NC(=O)[C@H](CCCNC(=N)N)NC(=O)[C@H](Cc1ccccc1)NC(=O)[C@H](CCCCN)NC(=O)[C@H](CCCNC(=N)N)NC(=O)[C@H](CC(C)C)NC(=O)[C@H](CCCNC(=N)N)NC(=O)[C@H](CCCCN)NC(=O)[C@H](CCCNC(=N)N)NC(=O)[C@H](CC(C)C)NC(=O)CNC(=O)[C@@H](N)CSC1CC(=O)N(CCC(=O)N[C@H]2C[C@H](O[C@H]3C[C@](O)(C(=O)CO)Cc4c(O)c5c(c(O)c43)C(=O)c3c(OC)cccc3C5=O)O[C@@H](C)[C@H]2O)C1=O)C(=O)N[C@@H](CCCCN)C(=O)N[C@@H](CCCCN)C(N)=O (stereo partly drawn) [PDC-2] (H-C(X1)GLRKRLRKFRNKIKK-NH2)
intracellular distribution of PDC (HeLa cells [1]): clustering inside the cytosol
EC50 (HeLa cells [2]; resazurin assay): 14.5 µM
PDC internalization (HeLa cells [3]; 5 µM PDC (text; legend of Figure 5C: 10 µM), doxorubicin red fluorescence): enhanced compared to the other two

GLRKRLRKFRNKIKEK-NH2 [sC18]
intracellular accumulation / uptake pattern (HeLa cells [1]): far lower compared to the other two novel peptides
intracellular accumulation / uptake pattern (HeLa cells [1]; listed as sC18^ΔE): accumulated in a dot-like manner within the cell interior and did not reach the nuclei
cell viability at 100 µM (HeLa cells [2]; concentration increased up to 100 µM, resazurin assay): ≥ 75%
concentration up to which no toxic effect was observed (HeLa cells [2]; pH 7.4, resazurin assay, n = 3 in triplicate): 50 µM
accumulation in spheroids (HEK-293 spheroids): most efficient variants
cytotoxicity (MCF-7 cells): slightly more toxic at higher concentrations
cellular uptake (HeLa cells [3]; triplicate n = 3): to a little extent
cellular uptake (HeLa cells [3]; [4]): highly significant and enhanced internalization
cellular uptake (HEK293 cells; triplicate n = 3): to a little extent
cellular uptake (HEK293 cells; [4]): highly significant and enhanced internalization

COc1cccc2c1C(=O)c1c(O)c3c(c(O)c1C2=O)C[C@@](O)(C(=O)CO)C[C@@H]3O[C@H]1C[C@H](N)[C@H](O)[C@H](C)O1.Cl [Dox, doxorubicin hydrochloride, reference compound]
EC50 (HeLa cells [2]; resazurin assay): 6.78 µM
cell viability (HFF-1 cells): 72%

COc1cccc2c1C(=O)c1c(O)c3c(c(O)c1C2=O)C[C@@](O)(C(=O)CO)C[C@@H]3O[C@H]1C[C@H](NC(=O)CCN2C(=O)CC(SC[C@H](N)C(=O)NCC(=O)N[C@@H](CC(C)C)C(=O)N[C@@H](CCCNC(=N)N)C(=O)N[C@@H](CCCCN)C(=O)N[C@@H](CCCNC(=N)N)C(=O)N[C@@H](CC(C)C)C(=O)N[C@@H](CCCNC(=N)N)C(=O)N[C@@H](CCCCN)C(=O)N[C@@H](Cc3ccccc3)C(=O)N[C@@H](CCCNC(=N)N)C(=O)N[C@@H](CC(N)=O)C(=O)N[C@@H](CCCCN)C(N)=O)C2=O)[C@H](O)[C@H](C)O1 (stereo partly drawn) [PDC-3] (H-C(X1)GLRKRLRKFRNK-NH2)
EC50 (HeLa cells [2]; resazurin assay): 27 µM

CC[C@H](C)[C@H](NC(=O)[C@H](CCCCN)NC(=O)[C@H](CC(N)=O)NC(=O)[C@H](CCCNC(=N)N)NC(=O)[C@H](Cc1ccccc1)NC(=O)[C@H](CCCCN)NC(=O)[C@H](CCCNC(=N)N)NC(=O)[C@H](CC(C)C)NC(=O)[C@H](CCCNC(=N)N)NC(=O)[C@H](CCCCN)NC(=O)[C@H](CCCNC(=N)N)NC(=O)[C@H](CC(C)C)NC(=O)CNC(=O)[C@@H](N)CSC1CC(=O)N(CCC(=O)N[C@H]2C[C@H](O[C@H]3C[C@](O)(C(=O)CO)Cc4c(O)c5c(c(O)c43)C(=O)c3c(OC)cccc3C5=O)O[C@@H](C)[C@H]2O)C1=O)C(=O)N[C@@H](CCCCN)C(=O)N[C@@H](CCC(=O)O)C(=O)N[C@@H](CCCCN)C(N)=O (stereo partly drawn) [PDC-1] (H-C(X1)GLRKRLRKFRNKIKEK-NH2)
intracellular distribution of PDC (HeLa cells [1]): more fluorescence was also measured within the nuclei
EC50 (HeLa cells [2]; resazurin assay): 15.3 µM
